Measured values from publication PMC10974272, “Cytotoxic and Antiproliferative Activity of LASSBio-2208 and the Attempts to Determine Its Drug Metabolism and Pharmacokinetics In Vitro Profile” (Pharmaceuticals, 2024).

Key:
[1] = test system: breast cancer cell line (MCF-7); experiment: MTT cell viability assay, MCF-7; conditions: Homo sapiens
Experimental: (§1) After the incubation time, the plate was centrifuged (Universal centrifuge 320R Hettich, Kirchlengern, Germany) at 440× g, 10 min and 4 °C, then 110 µL of supernatant was removed and 10 µL of MTT solution was added and left to incubate for 3.5 h in the oven at 37 °C and 5% CO2. […] The CC50 was calculated using the GraphPad Prism 9.0 program. Each sample was tested in triplicate in three independent experiments (N3) [32, 33].

Plasma stability = type: in vitro ADME, rat; conditions: for recovery at 10 μM / half-life at 10 μM: rat plasma diluted with phosphate buffer, pH 7.4; for recovery at 10 μM: rat plasma stability assay; for metabolic stability in rat plasma (in words) / half-life at 10 μM / Elimination Rate Constant (k) / Metabolization Rate: rat plasma; for half-life at 10 μM / Elimination Rate Constant (k) / Metabolization Rate: 37 °C, 10 μM; for Metabolization Rate: 0–240 min
Experimental: Considering that both LASSBio-2208 and LASSBio-1911 have, in their structures, the N-acylhydrazone and hydroxamic acid fragments, both susceptible to metabolic hydrolysis, metabolic stability in plasma was conducted with both compounds.
LASSBio-2208 and LASSBio-1911, in a final concentration of 10 μM from stock solution of 1 mM, was added in 50 μL of rat plasma solution diluted in 250 μL with phosphate buffer (pH 7.4) and was placed in a shaker at 37 °C under vigorous stirring for 0, 30, 60, 120 and 240 min. After each reaction time, 1 mL of cold acetonitrile containing 2 uM internal standard was added to the wells to stop the reaction. The solution was mixed and centrifuged at 24,500× g for 15 min (Universal Centrifuge 320R Hettich). The supernatant (1 mL) was filtrated and placed in vials to be analysed by HPLC.

HDAC-6 = conditions: cited from earlier work
[2] = test system: T lymphoblast cell line (MOLT-4); experiment: MTT cell viability assay, MOLT-4; conditions: Homo sapiens
Experimental: as §1

PAMPA—BBB = type: in vitro ADME; parameters: key to Classification BBB: permeable (CNS+); non-permeable (CNS−); conditions: for Papp: read-out: Pe. Exp. BBB
Experimental: To obtain information on the permeability potential of LASSBio-2208 on cell membranes, this derivative was tested using the parallel artificial membrane permeability assay (PAMPA) that is used as an in vitro model of passive diffusion and transcellular permeation. In this model, the permeability across two artificial membranes is measured: brain lipid from pig extract in dodecane (called PAMPA—BBB) and L-α soy phosphatidylcholine in dodecane (called PAMPA—TGI).
To perform the permeability assay we used a donor plate where the compounds (tests or controls) are diluted in a buffered medium, characterized by the presence of a synthetic membrane of polyvinylidene fluoride (PVDF) impregnated with a lipid solution, forming a barrier through which the compounds migrate through a diffusion process to the lower plate called the receptor.
The lipid mixture that impregnates the filter has a different constitution for the permeability tests for the blood–brain barrier (brain lipid from pig extract in dodecane) and gastrointestinal tract (L-α soy phosphatidylcholine in dodecane). In the PAMPA—BBB and PAMPA—GIT assays, the optical density values obtained in the reading at each selected wavelength, for each of the compounds were analysed in comparison with the values of several controls. In the case of the BBB, these values were used to elaborate an equation and determine the permeability coefficient (Pe), using a previously elaborated spreadsheet, and, for the PAMPA—GIT, these values were used to determine the absorbed fraction (Fa%), both using the Excel program. The permeability result for PAMPA—GIT classifies the compounds according to the percentage of absorbed fraction (Fa%), as follows: high intestinal permeability (70–100%), medium permeability (30–69%) or low permeability (0–29%), and the samples were diluted from a stock solution of 10 mM. The PAMPA—BBB model classifies the compounds only as follows: permeable (CNS+) or non-permeable (CNS−) and the assays were made from a stock solution of 1 mg for each compound [25, 40, 41, 42].

CCRF-CEM = experiment: SRB cell viability/antiproliferative assay, CCRF-CEM; conditions: Homo sapiens, 48 h
[3] = test system: human leukaemia cell line (CCRF-CEM); experiment: MTT cell viability assay, CCRF-CEM
Experimental: as §1

MOLT-4 = experiment: SRB cell viability/antiproliferative assay, MOLT-4; conditions: Homo sapiens, MOLT-4, 48 h
HDAC8 = conditions: cited from earlier work
PC-3 = experiment: SRB cell viability/antiproliferative assay, PC-3; conditions: for Emax: SRB 48 h, PC-3, maximum effect at maximum concentration used
[4] = Non-specific microsome protein binding; type: in vitro ADME; conditions: for fraction unbound at 60 min, 8.3 µM: rat, pH 7.4, liver microsomes 0.5 mg protein/mL, 37 °C, read-out: Percentage of ƒu(mic) (unbound fraction in nonspecific microsomal binding)
Experimental: Once such bonds are formed, the bound fraction would become incapable of being metabolized.
Liver microsomes were diluted with PBS pH 7.4 to a concentration of 0.5 mg protein/mL and 3 µL at 1 mM of the working test compound and solutions were mixed with 357 µL of liver microsome suspension. After mixing, duplicate 200 µL aliquots were immediately removed, while another microtubule acted as the control sample (T 0 h), and were quenched with 400 µL of cold acetonitrile containing analytical internal standards. The other samples were incubated at 37 °C at 100 rpm, for 60 min with the same subsequent treatment.

**Q.** For `O=C(NO)c1ccc(/C=N/NC(=O)c2cc(N3CCOCC3)nc(-c3cccc(O)c3)n2)cc1` [LASSBio-2208], which CC50 ([1]; MCF7, 24 h) is on record?
**A.** > 100 µM

**Q.** What about the Emax ([1]; MCF7, 24 h) of the same compound?
**A.** 29.5%

**Q.** What about the CC50 ([1]; MCF7, 48 h) of the same compound?
**A.** 31.7 µM

**Q.** And the Emax ([1]; MCF7, 48 h)?
**A.** 57.3%

**Q.** And the CC50 ([1]; MCF7, 72 h)?
**A.** 23 µM

**Q.** What about the Emax ([1]; MCF7, 72 h) of the same compound?
**A.** 60.7%

**Q.** And the “metabolic stability in rat plasma (in words)” value (Plasma stability)?
**A.** high metabolic stability

**Q.** What about the recovery at 10 μM (Plasma stability) of the same compound?
**A.** 75.5%

**Q.** What about the half-life at 10 μM (Plasma stability) of the same compound?
**A.** 14.4 h

**Q.** And the “Elimination Rate Constant (k)” value (Plasma stability)?
**A.** 0.0008

**Q.** And the “Metabolization Rate” value (Plasma stability)?
**A.** 20.61%

**Q.** What about the IC50 (HDAC-6) of the same compound?
**A.** 0.0153 µM

**Q.** And the CC50 ([2]; MOLT-4, 24 h)?
**A.** 7.14 µM

**Q.** What about the Emax ([2]; MOLT-4, 24 h) of the same compound?
**A.** 84.1%

**Q.** And the CC50 ([2]; MOLT-4, 48 h)?
**A.** 8.26 µM

**Q.** What about the Emax ([2]; MOLT-4, 48 h) of the same compound?
**A.** 83.2%

**Q.** And the CC50 ([2]; MOLT-4, 72 h)?
**A.** 7.15 µM

**Q.** What about the Emax ([2]; MOLT-4, 72 h) of the same compound?
**A.** 91.2%

**Q.** And the “Classification BBB” value (PAMPA—BBB)?
**A.** CNS−

**Q.** What about the “Pe. Exp. BBB” value (PAMPA—BBB) of the same compound?
**A.** low permeation

**Q.** And the Papp (PAMPA—BBB)?
**A.** 0.69 ×10⁻⁶ cm/s

**Q.** And the CC50 (CCRF-CEM)?
**A.** > 100 µM

**Q.** And the CC50 ([3]; 24 h)?
**A.** 27.8 µM

**Q.** What about the Emax ([3]; 24 h) of the same compound?
**A.** 69.4%

**Q.** And the CC50 ([3]; 48 h)?
**A.** 8.68 µM

**Q.** What about the Emax ([3]; 48 h) of the same compound?
**A.** 91.7%

**Q.** What about the CC50 ([3]; 72 h) of the same compound?
**A.** 8.54 µM

**Q.** What about the Emax ([3]; 72 h) of the same compound?
**A.** 90.4%

**Q.** What about the CC50 (MOLT-4) of the same compound?
**A.** > 100 µM

**Q.** What about the IC50 (HDAC8) of the same compound?
**A.** 0.0676 µM

**Q.** What about the CC50 (PC-3; Homo sapiens, PC-3, 48 h) of the same compound?
**A.** 98.9 µM

**Q.** And the Emax (PC-3; Homo sapiens, PC-3, 48 h)?
**A.** > 50%

**Q.** And the “unbound in nonspecific microsomal binding” value ([4]; liver microsomes)?
**A.** more than 93%

**Q.** And the fraction unbound at 60 min, 8.3 µM [4]?
**A.** 0.937

**Q.** For `CN(C)c1ccc(C(=O)N/N=C/c2ccc(C(=O)NO)cc2)cc1` [LASSBio-1911], which CC50 ([1]; MCF7, 24 h) is on record?
**A.** > 100 µM

**Q.** What about the Emax ([1]; MCF7, 24 h) of the same compound?
**A.** 21.6%

**Q.** And the CC50 ([1]; MCF7, 48 h)?
**A.** 42.6 µM

**Q.** What about the Emax ([1]; MCF7, 48 h) of the same compound?
**A.** 65.4%

**Q.** And the CC50 ([1]; MCF7, 72 h)?
**A.** 38.4 µM

**Q.** What about the Emax ([1]; MCF7, 72 h) of the same compound?
**A.** 75.4%

**Q.** What about the “metabolic stability in rat plasma (in words)” value (Plasma stability) of the same compound?
**A.** high metabolic stability

**Q.** And the recovery at 10 μM (Plasma stability)?
**A.** 73.4%

**Q.** And the half-life at 10 μM (Plasma stability)?
**A.** 6.42 h

**Q.** What about the “Elimination Rate Constant (k)” value (Plasma stability) of the same compound?
**A.** 0.0018

**Q.** And the “Metabolization Rate” value (Plasma stability)?
**A.** 36.14%

**Q.** And the IC50 (HDAC-6)?
**A.** 0.015 µM

**Q.** And the CC50 ([2]; MOLT-4, 24 h)?
**A.** 13.8 µM

**Q.** And the Emax ([2]; MOLT-4, 24 h)?
**A.** 96.5%

**Q.** What about the CC50 ([2]; MOLT-4, 48 h) of the same compound?
**A.** 6.15 µM

**Q.** And the Emax ([2]; MOLT-4, 48 h)?
**A.** 98.9%

**Q.** What about the CC50 ([2]; MOLT-4, 72 h) of the same compound?
**A.** 5.27 µM

**Q.** And the Emax ([2]; MOLT-4, 72 h)?
**A.** 99.2%

**Q.** And the “Classification BBB” value (PAMPA—BBB)?
**A.** CNS−

**Q.** What about the Papp (PAMPA—BBB) of the same compound?
**A.** 0.29 ×10⁻⁶ cm/s

**Q.** And the CC50 (CCRF-CEM)?
**A.** 25.2 µM

**Q.** And the Emax (CCRF-CEM)?
**A.** 69.2%

**Q.** What about the CC50 ([3]; 24 h) of the same compound?
**A.** 9.69 µM

**Q.** And the Emax ([3]; 24 h)?
**A.** 98%

**Q.** And the CC50 ([3]; 48 h)?
**A.** 6.98 µM

**Q.** And the Emax ([3]; 48 h)?
**A.** 98.8%

**Q.** And the CC50 ([3]; 72 h)?
**A.** 6.92 µM

**Q.** And the Emax ([3]; 72 h)?
**A.** 97.1%

**Q.** And the CC50 (MOLT-4)?
**A.** 53.1 µM

**Q.** And the Emax (MOLT-4)?
**A.** 61%

**Q.** What about the IC50 (HDAC8) of the same compound?
**A.** 0.23 µM

**Q.** What about the CC50 (PC-3; Homo sapiens, PC-3, 48 h) of the same compound?
**A.** > 100 µM

**Q.** What about the Emax (PC-3; Homo sapiens, PC-3, 48 h) of the same compound?
**A.** < 35%

**Q.** What about the Emax (PC-3) of the same compound?
**A.** 34.04%

**Q.** And the fraction unbound at 60 min, 8.3 µM [4]?
**A.** 0.004
